Assay [1] deals with cowpea weevil (C. maculatus). The assay is described as follows: Insecticidal test on artificial beans, cowpea weevil. In kind it is in vivo, Callosobruchus maculatus. The following applies: cowpea weevils. The procedure: (§1) These two species of bean weevils were cultured in the same way. In a 9 cm Petri dish containing 300 mungbean seeds, was placed ten adults of bean weevil and egg production was induced. After egg production, the adults were removed and cultured in a thermostatically controlled incubator at 60% humidity and 30° C. After 25 to 30 days from the egg production, the adults emerged. The emerged adults were used in the test for insecticidal activity.
To 1 g of the cotyledon powder of mungbean was added a small quantity of water to make bean-like solid material (about 0.25 g), which was freeze-dried. This material was called artificial bean (mungbean 100%) and used in the test. […]
One artificial seed each of artificial beans in this test was placed in a 9 cm Petri dish, on which the adults of azuki bean weevils or cowpea weevils shortly after the emergence were put and induced to lay eggs. […] The number of eggs laid on the artificial beans was recorded, and the number of the adults that emerged from the artificial beans was continuously recorded for up to 50 days after the egg production to calculate the rate of emergence. The artificial beans on which no emergence was recorded by the 50th day after eggs were laid were split with a pair of forceps and checked as to whether there was any larvae in the artificial seed. […]

For assay [2], the system named is azuki bean weevil (Callosobruchus chinensis). The assay is described as follows: Insecticidal test on artificial beans, azuki bean weevil. In kind it is in vivo. The protocol: as §1
(§2) To 1 g of the cotyledon powder of mungbean was added a small quantity of water to make bean-like solid material (about 0.25 g), which was freeze-dried. This material was called artificial bean (mungbean 100%) and used in the test.
(§3) The artificial beans (mungbean 100%) were placed in a 9 cm Petri dish, on which was then put the adults shortly after their emergence and eggs were laid on the artificial seeds. The culture environment was fixed at a temperature of 30° C. and a humidity of 60%. After a lapse of 25 to 30 days from the egg production, the adults normally emerged from the artificial beans (mungbean 100%). Thus, it became clear that the bean weevils can utilize the artificial beans for their egg production and emergence, and it was confirmed that the artificial beans are useful in a test of insecticidal activity for bean weevils.
(§4) One artificial seed each of artificial beans in this test was placed in a 9 cm Petri dish, on which the adults of azuki bean weevils or cowpea weevils shortly after the emergence were put and induced to lay eggs. After egg production, the adults were cultured in an incubator fixed at 30° C. and 60% humidity. The number of eggs laid on the artificial beans was recorded, and the number of the adults that emerged from the artificial beans was continuously recorded for up to 50 days after the egg production to calculate the rate of emergence. The artificial beans on which no emergence was recorded by the 50th day after eggs were laid were split with a pair of forceps and checked as to whether there was any larvae in the artificial seed. This experiment, the insecticidal test on the artificial beans, was repeated 4 times.
(§5) The value represented by the weight (g) of the artificial beans which can be prepared from the total weight of rice bean seed powder according to the minimum lethal concentration was regarded as the total activity of the rice bean seed powder. (The value derived by dividing the total weight of rice bean seed powder by the minimum lethal concentration)
(§6) Moreover, the total activity for 1 g of the rice bean seed powder was calculated as specific activity (units/g).
(§7) Insecticidal activity was observed by calculating total activity and specific activity under the same conditions and following the same procedure as in Experiment 1, except that the extract obtained in each step of purification was used in place of the seed powder of rice bean.

Assay [3] deals with larva of giant tobacco budworm (Heliothis obsoleta Fabricius). Conditions: cited from earlier work.
The test system of assay [4] is two species of bean weevils: azuki bean weevil (Callosobruchus chinensis) and cowpea weevil (C. maculatus). The assay is described as follows: Insecticidal test on artificial beans, one result stated for both bean weevil species. Format: in vivo. The protocol:
Two species of bean weevils, i.e., azuki bean weevil (Callosobruchus chinensis) and cowpea weevil (C. maculatus) were employed. Cowpea weevil was obtained from Kasetsart University, Thailand, under an import license from the Plant Quarantine Office of Japan and subcultured.
as §1, §2, §3, §4, §5, §6, §7

The mark [5] stands for this setting: Table 1, steps from silica gel chromatography on, activity to azuki bean weevils.
The mark [6] stands for this setting: Table 2, purification without silica gel, two species of bean weevils.

Entries after “also recorded” stand apart in the source; their conditions may differ.

With `O=C1C[C@H](c2ccc(O)cc2)Oc2c1c(O)cc(O)c2[C@@H]1O[C@H](CO)[C@@H](O)[C@H](O)[C@H]1O` [8-C-β-D-glucosyl-(R)-naringenin], the “insecticidal activity (in words)” value in assay [1] is on record as “only to azuki bean weevils”; in assay [2] (azuki bean weevils) it was “insecticidal substance active to azuki bean weevils; also recorded: shows insecticidal activity”. The compound further had a Specific activity in assay [2] (setting [5]) of 1000.0 units/g. The Total activity in assay [2] (setting [5]) is listed as 2.0 units. The rate of emergence result in assay [2] (artificial beans containing 0.05%, 0.1%, or 0.2% of the 7th peak, azuki bean weevils) is “low”; in assay [2] (artificial beans containing 0.1% of the 7th peak), 0%; in assay [2] (artificial beans containing 0.2% of the 7th peak), 0%. For the same compound, in assay [2] (concentration in artificial beans required for emergence rate 0%, azuki bean weevils), the minimum lethal concentration is given as 0.1%.
In the case of `O=c1cc(-c2ccc(O)c(O)c2)oc2cc(O)c([C@@H]3O[C@H](CO)[C@@H](O)[C@H](O)[C@H]3O)c(O)c12` [6-C-β-D-glucosyl-luteolin], the “insecticidal effect (in words)” value in assay [3] was “insecticidal effect”.
On to `O=C1C[C@H](c2ccc(O)cc2)Oc2cc(O)c([C@@H]3O[C@H](CO)[C@@H](O)[C@H](O)[C@H]3O)c(O)c21` [6-C-β-D-glucosyl-(R)-naringenin], for which the “insecticidal activity (in words)” value in assay [1] is “insecticidally active”; in assay [4] (azuki bean weevils and cowpea weevils), “insecticidal substance active to azuki bean weevils and cowpea weevils”. The Specific activity in assay [4] (setting [6]) was 1000.0 units/g. The same compound yielded a Total activity in assay [4] (setting [6]) of 8.0 units. The rate of emergence result was “low” in assay [4] (artificial beans containing 0.05%, 0.1%, or 0.2% of the 5th peak, both species); 0% in assay [4] (artificial beans containing 0.1% of the 5th peak, two species); 0% in assay [4] (artificial beans containing 0.2% of the 5th peak, two species). In addition, the minimum lethal concentration in assay [4] (concentration in artificial beans required for emergence rate 0%, both weevil species) is reported as 0.1%.
